Earlier results, collected in Sander's compilation of Henry's law constants.

Assay: Henry solubility constant Hcp at 298.15 K (mol/(m3 Pa))
Details: cited value
[1] = reference: Burkholder et al. (2015)
[2] = reference: Burkholder et al. (2019)
[3] = reference: Sander et al. (2006)
[4] = reference: Sander et al. (2011)
[5] = reference: Barcelo and Hennion (1997)
[6] = reference: Fogg and Sangster (2003)

CCCOC(=O)CC [propyl propanoate]
Henry solubility constant Hcp (reference: Brockbank (2013)): 0.026

CCOC(=O)CC [ethyl propanoate]
Henry solubility constant Hcp (reference: Brockbank (2013)): 0.038

Cc1cccc(O)c1 [1-hydroxy-3-methylbenzene]
Henry solubility constant Hcp (reference: Brockbank (2013)): 12
Henry solubility constant Hcp (reference: Howard (1989)): 11

CC[N+](=O)[O-] [nitroethane]
Henry solubility constant Hcp (reference: Brockbank (2013)): 0.21
Henry solubility constant Hcp [1]: 0.21
Henry solubility constant Hcp [2]: 0.21
Henry solubility constant Hcp (reference: Gaffney and Senum (1984)): 0.21
Henry solubility constant Hcp [3]: 0.21
Henry solubility constant Hcp [4]: 0.21

CCOCCOCC [1,2-diethoxyethane]
Henry solubility constant Hcp (reference: Howard and Meylan (1997)): 0.12

CC(=O)C(C)(C)C [3,3-dimethyl-2-butanone]
Henry solubility constant Hcp (reference: Brockbank (2013)): 0.043

CC(C)CC(C)O (stereo unspecified) [4-methyl-2-pentanol]
Henry solubility constant Hcp (reference: Brockbank (2013)): 0.22

CC(=O)OCC(C)C [2-methylpropyl ethanoate]
Henry solubility constant Hcp (reference: Brockbank (2013)): 0.026

CC(=O)C(=O)O [2-oxopropanoic acid]
Henry solubility constant Hcp [1]: 3100
Henry solubility constant Hcp [2]: 3100
Henry solubility constant Hcp [3]: 3100
Henry solubility constant Hcp [4]: 3100

CCCCCCCC [octane]
Henry solubility constant Hcp (reference: Brockbank (2013)): 3.4e-06

COP(=O)(OC)C(O)C(Cl)(Cl)Cl (stereo unspecified)
Henry solubility constant Hcp [5]: 5800

Cc1ccc(C)cc1 [1,4-dimethylbenzene]
Henry solubility constant Hcp (reference: Brockbank (2013)): 0.0014
Henry solubility constant Hcp [6]: 0.0019
Henry solubility constant Hcp (reference: Foster et al. (1994)): 0.0014

CN(C)C(=O)Nc1ccccc1 [fenuron]
Henry solubility constant Hcp [5]: 36

CCCC(=O)CCC [4-heptanone]
Henry solubility constant Hcp (reference: Brockbank (2013)): 0.051

BrC(Br)C(Br)Br [1,1,2,2-tetrabromoethane]
Henry solubility constant Hcp (reference: Brockbank (2013)): 0.014
Henry solubility constant Hcp [2]: 0.014

CC(=O)OC1CCCCC1 [cyclohexyl ethanoate]
Henry solubility constant Hcp (reference: Brockbank (2013)): 0.1

OCCc1ccccc1 [2-phenylethanol]
Henry solubility constant Hcp (reference: Brockbank (2013)): 17

ClC(Cl)=C(Cl)C(Cl)=C(Cl)Cl [hexachlorobutadiene]
Henry solubility constant Hcp (reference: Brockbank (2013)): 0.00056
Henry solubility constant Hcp [6]: 0.00083
Henry solubility constant Hcp (reference: Goldstein (1982)): 0.00098
Henry solubility constant Hcp (reference: Horvath and Getzen (1999)): 0.00096

C1CCCCCC1 [cycloheptane]
Henry solubility constant Hcp (reference: Brockbank (2013)): 6.7e-05

C1=CCCCC1 [cyclohexene]
Henry solubility constant Hcp (reference: Brockbank (2013)): 0.00029

Cc1cccc(C)n1 [2,6-dimethylpyridine]
Henry solubility constant Hcp (reference: Brockbank (2013)): 0.92

CCCCCCCN [1-heptanamine]
Henry solubility constant Hcp (reference: Brockbank (2013)): 0.28

C1=Cc2cccc3cccc1c23 [acenaphthylene]
Henry solubility constant Hcp (reference: Brockbank (2013)): 0.085
Henry solubility constant Hcp [6]: 0.091

CC1=CC(=O)CC(C)(C)C1 [3,5,5-trimethyl-2-cyclohexen-1-one]
Henry solubility constant Hcp (reference: Goldstein (1982)): 1.7

CC(Cl)(Cl)Cl [1,1,1-trichloroethane]
Henry solubility constant Hcp (reference: Barr and Newsham (1987)): 0.00058
Henry solubility constant Hcp (reference: Brockbank (2013)): 0.00058
Henry solubility constant Hcp [1]: 0.0006
Henry solubility constant Hcp [2]: 0.0006
Henry solubility constant Hcp [6]: 0.00062
Henry solubility constant Hcp (reference: Goldstein (1982)): 0.0022

COP(=S)(OC)Oc1ccc(Sc2ccc(OP(=S)(OC)OC)cc2)cc1 [temefos]
Henry solubility constant Hcp [5]: 1.7

O=C(O)c1ccccc1 [benzenecarboxylic acid]
Henry solubility constant Hcp (reference: Goldstein (1982)): 140
Henry solubility constant Hcp (reference: Howard (1989)): 140

C[C@@H]1CCCC[C@H]1C (relative stereo) [trans-1,2-dimethylcyclohexane]
Henry solubility constant Hcp (reference: Brockbank (2013)): 1.6e-05

CCOP(=O)(OCC)OC(=CCl)c1ccc(Cl)cc1Cl [chlorfenvinphos]
Henry solubility constant Hcp [5]: 35

C1CCOCC1 [tetrahydropyran]
Henry solubility constant Hcp (reference: Brockbank (2013)): 0.081

OCC(O)CO [1,2,3-propanetriol]
Henry solubility constant Hcp [1]: 4.7e+06
Henry solubility constant Hcp [2]: 4.7e+06

Cc1ccc(C)c(C)c1 [1,2,4-trimethylbenzene]
Henry solubility constant Hcp (reference: Brockbank (2013)): 0.0016
Henry solubility constant Hcp [6]: 0.0017

C#CCCCCC [1-heptyne]
Henry solubility constant Hcp (reference: Brockbank (2013)): 0.00018

ClC(Cl)=C(Cl)Cl [tetrachloroethene]
Henry solubility constant Hcp (reference: Brockbank (2013)): 0.00056
Henry solubility constant Hcp [1]: 0.00055
Henry solubility constant Hcp [2]: 0.00055
Henry solubility constant Hcp (reference: Dilling (1977)): 0.00081
Henry solubility constant Hcp (reference: Dilling et al. (1975)): 0.00081
Henry solubility constant Hcp [6]: 0.0006
Henry solubility constant Hcp (reference: Goldstein (1982)): 0.00036

CCNc1ccccc1 [(ethylamino)-benzene]
Henry solubility constant Hcp (reference: Brockbank (2013)): 0.81

[Ne] [neon]
Henry solubility constant Hcp (reference: Clever (1979a)): 4.5e-06

CCCCC(C)=O [2-hexanone]
Henry solubility constant Hcp (reference: Brockbank (2013)): 0.11
Henry solubility constant Hcp (reference: Howard (1993)): 0.1

NC1CCCCC1 [cyclohexanamine]
Henry solubility constant Hcp (reference: Brockbank (2013)): 2.2

CCNC(=O)[C@@H](C)OC(=O)Nc1ccccc1 [carbetamide]
Henry solubility constant Hcp [5]: 1.1

CCCCCCCC(C)=O [2-nonanone]
Henry solubility constant Hcp (reference: Brockbank (2013)): 0.032
